Earlier results, collected in patent publication US9610295B2, “Method for treating erectile dysfunction” (priority 2010, dated 2017).

Experiments:
[1] = oral administration, Viagra formulation
[2] = biological target: phosphodiesterase type 5 (PDE5) (Homo sapiens, UniProt O76074); conditions: PDE5 vs PDE6
[3] = in vivo

Structure (SMILES)	absolute bioavailability [1]	potency for PDE5 compared to PDE6 [2]	half-life [3]
CCCc1nn(C)c2c(=O)[nH]c(-c3cc(S(=O)(=O)N4CCN(C)CC4)ccc3OCC)nc12 [sildenafil, 1-[[3-(6,7-dihydro-1-methyl-7-oxo-3-propyl-1H-pyrazolo[4,3-d]pyrimidin-5-yl)-4-ethoxyphenyl]sulfonyl]-4-methyl piperazine]	about 40%	about 10 fold	–
CN1CC(=O)N2[C@H](c3ccc4c(c3)OCO4)c3[nH]c4ccccc4c3C[C@@H]2C1=O [tadalafil, (6R-trans)-6-(1,3-benzodioxol-5-yl)-2,3,6,7,12,12a-hexahydro-2-methylpyrazino[1,2:1,6]-pyrido[3,4-6]indole-1,4-dione]	–	–	about 17.5 hours
